In patent US10919852B2, “Immunomodulator compounds” (CHEMOCENTRYX, INC., priority 2017, dated 2021):

These molecules were tested against human PD-L1 / Human PD-1 (Homo sapiens (Human), UniProt Q9NZQ7) (assay: Enzyme-Linked Immunosorbent Assay (ELISA), PD-1/PD-L1 binding). Details: plate-coated human PD-L1, biotinylated human PD-1.
Procedure: Biological Example: Enzyme-Linked Immunosorbent Assay—ELISA
96 Well plates were coated with […] of human PD-L1 (obtained from R&D) in PBS overnight at 4° C. The wells were then blocked with 2% BSA in PBS (W/V) with 0.05% TWEEN-20 for 1 hour at 37° C. The plates were washed 3 times with PBS/0.05% TWEEN-20 and the compounds were serial diluted (1:5) in dilution medium and added to the ELISA plates. Human PD-1 and biotin 0.3 μg/mL (ACRO Biosystems) were added and incubated for 1 hour at 37° C. then washed 3 times with PBS/0.05% TWEEN-20. A second block was performed with 2% BSA in PBS (W/V)/0.05% TWEEN-20 for 10 min at 37° C. and was washed 3 times with PBS/0.05% TWEEN-20. Streptavidin-HRP was added for 1 hour at 37° C. then washed 3 times with PBS/0.05% TWEEN-20. TMB substrate was added and reacted for 20 min at 37° C. A stop solution (2 N aqueous H2SO4) was added. The absorbance was read at 450 nm using a micro-plate spectrophotometer.

human PD-L1 / Human PD-1, sequence (Q9NZQ7 19-239): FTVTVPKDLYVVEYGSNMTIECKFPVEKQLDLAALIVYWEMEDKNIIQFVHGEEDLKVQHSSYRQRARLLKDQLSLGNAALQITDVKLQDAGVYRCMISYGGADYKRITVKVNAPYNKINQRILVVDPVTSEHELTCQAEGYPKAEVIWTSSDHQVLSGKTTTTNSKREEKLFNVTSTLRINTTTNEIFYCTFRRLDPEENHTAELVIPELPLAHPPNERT

Row | SMILES | IC50
1 | CCOc1cc(O[C@H]2CCc3c(-c4cccc(OCCCN5CCC(O)CC5)c4C)cccc32)c(Cl)cc1CN[C@H](C(=O)O)[C@@H](C)O | < 5 nM
2 | CCOc1cc(O[C@H]2CCc3c(-c4cccc(OCCCN5CC[C@@H](O)C5)c4C)cccc32)c(Cl)cc1CN[C@@H](CO)C(=O)O | < 5 nM
3 | CCOc1cc(O[C@H]2CCc3c(-c4cccc(OCCCN5CC[C@@H](O)C5)c4C)cccc32)c(Cl)cc1CN[C@H](C(=O)O)[C@@H](C)O | < 5 nM
4 | CCOc1cc(O[C@H]2CCc3c(-c4cccc(OCCCN5CC[C@@H](O)C5)c4C)cccc32)c(Cl)cc1CNC(C)(CO)C(=O)O (stereo partly drawn) | < 5 nM
5 | Cc1c(OCCCN2CCC[C@@H](O)C2)cccc1-c1cccc2c1CC[C@@H]2Oc1cc(OCc2cncc(C#N)c2)c(CN[C@H](C(=O)O)[C@@H](C)O)cc1Cl | < 5 nM
6 | Cc1c(OCCCN2CC(F)C2)cccc1-c1cccc2c1CC[C@@H]2Oc1cc(OCc2cncc(C#N)c2)c(CNCC2CCC(=O)N2)cc1Cl (stereo partly drawn) | < 5 nM
7 | N#Cc1cc(C#N)cc(COc2cc(O[C@@H]3c4cccc(-c5cccc(OCCCN6CC(O)C6)c5Cl)c4C[C@@H]3F)c(Cl)cc2CNC[C@H]2CCC(=O)N2)c1 | < 5 nM
8 | C[C@@](CO)(NCc1cc(Cl)c(O[C@@H]2c3cccc(-c4cccc(OCCCN5CC(O)C5)c4Cl)c3C[C@@H]2F)cc1OCc1cc(C#N)cc(C#N)c1)C(=O)O | < 5 nM
9 | N#Cc1cncc(COc2cc(O[C@H]3CCc4c(-c5cccc(OCCCN6CC(O)C6)c5C(F)(F)F)cccc43)c(Cl)cc2CNCC2CCC(=O)N2)c1 (stereo partly drawn) | 5 to 500 nM
10 | Cc1c(OCCCN2CC3(CC(F)C3)C2)cccc1-c1cccc2c1CC[C@@H]2Oc1cc(OCc2cncc(C#N)c2)c(CNCC2CCC(=O)N2)cc1Cl (stereo partly drawn) | 5 to 500 nM
11 | CCOc1cc(O[C@H]2CCc3c(-c4cccc(OCCCN5CC(O)C5)c4Cl)cccc32)c(Cl)cc1CN[C@@H]1CCCC[C@@H]1O | 5 to 500 nM
12 | CCOc1cc(O[C@H]2CCc3c(-c4cccc(OCCCN5CC(O)C5)c4Cl)cccc32)c(Cl)cc1CNCC1CCC(=O)N1 (stereo partly drawn) | 5 to 500 nM
13 | N#Cc1cncc(COc2cc(O[C@H]3CCc4c(-c5cccc(OCCCN6CC(F)(F)C6)c5Cl)cccc43)c(Cl)cc2CN[C@@H]2CCCC[C@@H]2O)c1 | 5 to 500 nM
14 | N#Cc1cncc(COc2cc(O[C@H]3CCc4c(-c5cccc(OCCCN6CC[C@@H](F)C6)c5Cl)cccc43)c(Cl)cc2CN[C@@H]2CCCC[C@@H]2O)c1 | < 5 nM
15 | N#Cc1cncc(COc2cc(O[C@H]3CCc4c(-c5cccc(OCCCN6CCC(F)CC6)c5Cl)cccc43)c(Cl)cc2CN[C@@H]2CCCC[C@@H]2O)c1 | < 5 nM
16 | N#Cc1cncc(COc2cc(O[C@H]3CCc4c(-c5cccc(OCCCN6CC[C@H](F)C6)c5Cl)cccc43)c(Cl)cc2CN[C@@H]2CCCC[C@@H]2O)c1 | < 5 nM
17 | N#Cc1cc(C#N)cc(COc2cc(O[C@@H]3c4cccc(-c5cccc(OCCCN6CCC(F)CC6)c5Cl)c4C[C@H]3F)c(Cl)cc2CNC[C@H]2CCC(=O)N2)c1 | 5 to 500 nM
18 | N#Cc1cc(C#N)cc(COc2cc(O[C@@H]3c4cccc(-c5cccc(OCCCN6CC(F)C6)c5Cl)c4C[C@H]3F)c(Cl)cc2CNC[C@H]2CCC(=O)N2)c1 | 5 to 500 nM
19 | CCOc1cc(O[C@H]2CCc3c(-c4cccc(OCCCN5CCC(F)CC5)c4Cl)cccc32)c(Cl)cc1CNC(C)(CO)CO | 5 to 500 nM

Row | SMILES | IC50
20 | CCOc1cc(O[C@@H]2c3cccc(-c4cccc(OCCCN5CCC(F)CC5)c4Cl)c3C[C@@H]2F)c(Cl)cc1CNC[C@H]1CCC(=O)N1 | 5 to 500 nM
21 | CCOc1cc(O[C@@H]2c3cccc(-c4cccc(OCCCN5CCC(F)CC5)c4Cl)c3C[C@@H]2F)c(Cl)cc1CN[C@@H]1CCCC[C@@H]1O | 5 to 500 nM
22 | CC1(O)CN(CCCOc2cccc(-c3cccc4c3CC[C@@H]4Oc3cc(OCc4cncc(C#N)c4)c(CN[C@@](C)(CO)C(=O)O)cc3Cl)c2Cl)C1 | < 5 nM
23 | CCOc1cc(O[C@@H]2c3cccc(-c4cccc(OCCCN5CC(F)C5)c4Cl)c3C[C@@H]2F)c(Cl)cc1CN[C@@](C)(CO)C(=O)O | 5 to 500 nM
24 | CCOC(=O)[C@](C)(CO)NCc1cc(Cl)c(O[C@H]2CCc3c(-c4cccc(OCCCN5CC(O)C5)c4Cl)cccc32)cc1OCc1cncc(C#N)c1 | < 5 nM
25 | CCOc1cc(O[C@@H]2c3cccc(-c4cccc(OCCCN5CC(O)C5)c4Cl)c3C[C@@H]2F)c(Cl)cc1CN[C@@](C)(CO)C(=O)O | 5 to 500 nM
26 | C[C@@](CO)(NCc1cc(Cl)c(O[C@@H]2c3cccc(-c4cccc(OCCCN5CC(O)C5)c4Cl)c3C[C@@H]2F)cc1OCc1cncc(C#N)c1)C(=O)O | < 5 nM
27 | C[C@@](CO)(NCc1cc(Cl)c(O[C@@H]2c3cccc(-c4cccc(OCCCN5CC(F)C5)c4Cl)c3C[C@@H]2F)cc1OCc1cncc(C#N)c1)C(=O)O | < 5 nM
28 | COc1cc(O[C@H]2CCc3c(-c4cccc(OCCCN5CCC(F)CC5)c4Cl)cccc32)c(Cl)cc1CN[C@@H]1CCCC[C@@H]1O | 5 to 500 nM
29 | CCOc1cc(O[C@H]2CCc3c(-c4cccc(OCCCN5CC(O)C5)c4Cl)cccc32)c(Cl)cc1CN[C@@](C)(CO)C(=O)O | < 5 nM
30 | CC(CO)(NCc1cc(Cl)c(O[C@H]2CCc3c(-c4cccc(OCCCN5CC(O)C5)c4Cl)cccc32)cc1OCc1cccnc1)C(=O)O (stereo partly drawn) | < 5 nM
31 | CC(CO)(NCc1cc(Cl)c(O[C@H]2CCc3c(-c4cccc(OCCCN5CCOCC5)c4Cl)cccc32)cc1OCc1cncc(C#N)c1)C(=O)O (stereo partly drawn) | < 5 nM
32 | CC(CO)(NCc1cc(Cl)c(O[C@H]2CCc3c(-c4cccc(OCCCN5CC(O)C5)c4Cl)cccc32)cc1OCc1cncc(Cl)c1)C(=O)O (stereo partly drawn) | < 5 nM
33 | CC(CO)(NCc1cc(Cl)c(O[C@H]2CCc3c(-c4cccc(OCCCN5CC(F)C5)c4Cl)cccc32)cc1OCc1cncc(C#N)c1)C(=O)O (stereo partly drawn) | < 5 nM
34 | C[C@@](CO)(NCc1cc(Cl)c(O[C@H]2CCc3c(-c4cccc(OCCCN5CC(O)C5)c4Cl)cc(F)cc32)cc1OCc1cncc(C#N)c1)C(=O)O | < 5 nM
35 | CC(CO)(NCc1cc(Cl)c(O[C@H]2CCc3c(-c4cccc(OCCCN5CC6(CC(O)C6)C5)c4Cl)cccc32)cc1OCc1cncc(C#N)c1)C(=O)O (stereo partly drawn) | < 5 nM
36 | CC(CO)(NCc1cc(Cl)c(O[C@H]2CCc3c(-c4cccc(OCCCN5CC6(CC(F)C6)C5)c4Cl)cccc32)cc1OCc1cncc(C#N)c1)C(=O)O (stereo partly drawn) | < 5 nM
37 | N#Cc1cncc(COc2cc(O[C@H]3CCc4c(-c5cccc(OCCCN6CC(O)C6)c5Cl)cccc43)c(Cl)cc2CN2CCC3(C2)NC(=O)NC3=O)c1 (stereo partly drawn) | 5 to 500 nM
38 | N#Cc1cncc(COc2cc(O[C@H]3CCc4c(-c5cccc(OCCCN6CC(O)C6)c5Cl)cccc43)c(Cl)cc2CN[C@@H]2CCCC[C@@H]2O)c1 | < 5 nM

Row | SMILES | IC50
39 | N#Cc1cncc(COc2cc(O[C@H]3CCc4c(-c5cccc(OCCCN6CCC(F)CC6)c5Cl)cccc43)c(Cl)cc2CNC[C@@H]2CCC(=O)N2)c1 | < 5 nM
40 | C[C@@H](O)[C@H](NCc1cc(Cl)c(O[C@H]2CCc3c(-c4cccc(OCCCN5CC(O)C5)c4Cl)cccc32)cc1OCc1cncc(C#N)c1)C(=O)NS(C)(=O)=O | < 5 nM
41 | N#Cc1cncc(COc2cc(O[C@H]3CCc4c(-c5cccc(OCCCN6CC(O)C6)c5Cl)cccc43)c(Cl)cc2CN2CC(O)C2)c1 | < 5 nM
42 | N#Cc1cncc(COc2cc(O[C@H]3CCc4c(-c5cccc(OCCCN6CC(O)C6)c5Cl)cccc43)c(Cl)cc2CN2CCC(O)CC2)c1 | < 5 nM
43 | C[C@@H](O)[C@H](NCc1cc(Cl)c(O[C@H]2CCc3c(-c4cccc(OCCCN5CC(O)C5)c4Cl)cccc32)cc1OCc1cncc(C#N)c1)C(N)=O | < 5 nM
44 | Cc1c(OCCCN2CCC(F)CC2)cccc1-c1cccc2c1CC[C@@H]2Oc1cc(OCc2cncc(C#N)c2)c(CNC[C@@H]2CCC(=O)N2)cc1Cl | < 5 nM
45 | N#Cc1cncc(COc2cc(O[C@H]3CCc4c(-c5cccc(OCCCN6CC(O)C6)c5Cl)cccc43)c(Cl)cc2CN2CC[C@@H](O)C2)c1 | < 5 nM
46 | N#Cc1cncc(COc2cc(O[C@H]3CCc4c(-c5cccc(OCCCN6CC(O)C6)c5Cl)cccc43)c(Cl)cc2CNC[C@@H]2CCC(=O)N2)c1 | < 5 nM
47 | N#Cc1cncc(COc2cc(O[C@H]3CCc4c(-c5cccc(OCCCN6CC(O)C6)c5Cl)cccc43)c(Cl)cc2CN2CC3(CC(O)C3)C2)c1 | < 5 nM
48 | CC(C)(O)CNCc1cc(Cl)c(O[C@H]2CCc3c(-c4cccc(OCCCN5CC(O)C5)c4Cl)cccc32)cc1OCc1cncc(C#N)c1 | < 5 nM
49 | C[C@@H](O)[C@H](NCc1cc(Cl)c(O[C@H]2CCc3c(-c4cccc(OCCCN5CC(O)C5)c4Cl)cccc32)cc1OCc1cncc(C#N)c1)C(=O)O | < 5 nM
50 | N#Cc1cncc(COc2cc(O[C@H]3CCc4c(-c5cccc(OCCCN6CC(O)C6)c5Cl)cccc43)c(Cl)cc2CNCC(=O)O)c1 | < 5 nM
51 | CCCC(CO)(NCc1cc(Cl)c(O[C@H]2CCc3c(-c4cccc(OCCCN5CC(O)C5)c4Cl)cccc32)cc1OCc1cncc(C#N)c1)C(=O)O (stereo partly drawn) | < 5 nM
52 | COc1cc(O[C@H]2CCc3c(-c4cccc(OCCCN5CC(O)C5)c4Cl)cccc32)cc(OC)c1CN[C@@](C)(CO)C(=O)O | 5 to 500 nM
53 | C[C@@](CO)(NCc1cc(Cl)c(O[C@H]2CCc3c(-c4cccc(OCCCN5CC(O)C5)c4Cl)cccc32)cc1-c1cncc(C#N)c1)C(=O)O | < 5 nM
54 | Cc1c(OCCCN2CCC(F)CC2)cccc1-c1cccc2c1CC[C@@H]2Oc1cc(OCc2cncc(C#N)c2)c(CNC[C@H]2CCC(=O)N2)cc1Cl | < 5 nM
55 | N#Cc1cncc(COc2cc(O[C@H]3CCc4c(-c5cccc(OCCCN6CCC(O)CC6)c5Cl)cccc43)c(Cl)cc2CNC[C@@H]2CCC(=O)N2)c1 | < 5 nM
56 | N#Cc1cncc(COc2cc(O[C@H]3CCc4c(-c5cccc(OCCCN6CCC(O)CC6)c5Cl)cccc43)c(Cl)cc2CNC[C@H]2CCC(=O)N2)c1 | < 5 nM
57 | N#Cc1cncc(COc2cc(O[C@H]3CCc4c(-c5cccc(OCCCN6CCC(F)CC6)c5Cl)cccc43)c(Cl)cc2CNC[C@H]2CCC(=O)N2)c1 | < 5 nM
